How the values were obtained:
[1] = molecular target: T1, SMARCA4 (Homo sapiens, UniProt P51532); test: Cellular degradation assay, SMARCA4 (Table 1); type: cell-based
T1 construct: endogenous in cells

[2] = molecular target: T2, SMARCA2 (Homo sapiens, UniProt P51531); test: SMARCA2 Cellular Degradation Assay (Western blot analysis on Jess platform); type: cell-based; details: for DC50 / Dmax: cellular degradation; for Fold Selectivity SMARCA4/2: ratio DC50 SMARCA4 / DC50 SMARCA2
T2 construct: endogenous in cells
T2 sequence (P51531 whole entry, species assumed): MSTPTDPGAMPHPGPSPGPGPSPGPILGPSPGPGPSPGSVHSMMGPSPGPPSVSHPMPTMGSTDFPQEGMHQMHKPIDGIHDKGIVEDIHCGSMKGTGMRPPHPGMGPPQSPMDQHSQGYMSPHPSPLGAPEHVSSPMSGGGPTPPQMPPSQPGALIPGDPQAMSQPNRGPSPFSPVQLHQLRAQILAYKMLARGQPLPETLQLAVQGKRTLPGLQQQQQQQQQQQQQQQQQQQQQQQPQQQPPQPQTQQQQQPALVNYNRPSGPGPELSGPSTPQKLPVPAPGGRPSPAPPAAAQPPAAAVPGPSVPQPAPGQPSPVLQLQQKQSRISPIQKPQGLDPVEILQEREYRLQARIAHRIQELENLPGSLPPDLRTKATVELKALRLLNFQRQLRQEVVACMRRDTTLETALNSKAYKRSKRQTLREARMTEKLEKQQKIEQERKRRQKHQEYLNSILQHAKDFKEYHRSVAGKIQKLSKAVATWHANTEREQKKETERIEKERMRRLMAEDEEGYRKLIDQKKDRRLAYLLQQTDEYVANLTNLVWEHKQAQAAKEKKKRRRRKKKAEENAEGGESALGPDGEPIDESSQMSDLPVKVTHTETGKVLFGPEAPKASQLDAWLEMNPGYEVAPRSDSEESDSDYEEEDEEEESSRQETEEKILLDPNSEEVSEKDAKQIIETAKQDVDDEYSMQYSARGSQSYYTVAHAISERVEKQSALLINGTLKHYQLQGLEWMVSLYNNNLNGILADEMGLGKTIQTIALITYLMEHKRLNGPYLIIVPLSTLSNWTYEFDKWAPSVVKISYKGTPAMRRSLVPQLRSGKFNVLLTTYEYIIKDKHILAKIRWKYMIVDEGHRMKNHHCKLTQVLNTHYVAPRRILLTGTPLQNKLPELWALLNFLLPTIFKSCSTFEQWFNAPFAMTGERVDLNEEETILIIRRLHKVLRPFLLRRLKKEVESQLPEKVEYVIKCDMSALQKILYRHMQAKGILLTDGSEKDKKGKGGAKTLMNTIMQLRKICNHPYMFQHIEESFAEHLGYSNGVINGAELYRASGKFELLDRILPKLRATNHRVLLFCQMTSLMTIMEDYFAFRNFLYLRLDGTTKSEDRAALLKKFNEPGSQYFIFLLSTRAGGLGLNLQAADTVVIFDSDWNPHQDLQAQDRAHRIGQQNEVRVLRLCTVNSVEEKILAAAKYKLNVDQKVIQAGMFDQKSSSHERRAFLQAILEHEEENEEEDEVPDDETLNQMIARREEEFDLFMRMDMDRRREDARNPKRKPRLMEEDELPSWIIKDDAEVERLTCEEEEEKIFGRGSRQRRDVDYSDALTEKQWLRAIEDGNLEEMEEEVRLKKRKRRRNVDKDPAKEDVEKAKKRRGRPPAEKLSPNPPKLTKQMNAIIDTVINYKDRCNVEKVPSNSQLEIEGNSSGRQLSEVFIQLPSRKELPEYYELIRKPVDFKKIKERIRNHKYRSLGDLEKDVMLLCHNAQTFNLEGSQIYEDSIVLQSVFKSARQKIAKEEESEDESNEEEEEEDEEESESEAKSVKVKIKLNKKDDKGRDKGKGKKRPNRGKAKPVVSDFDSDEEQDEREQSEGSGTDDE
How it was run: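 Lysates of cells extracted from tumors, 5 μg total protein per capillary, were probed for SMARCA2 and β-actin by capillary Western on Jess using chemiluminescence and fluorescence detection. SMARCA2 peak area was background-subtracted and normalized to actin, then expressed as % remaining relative to vehicle control.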

T1 sequence (P51532 whole entry, species assumed): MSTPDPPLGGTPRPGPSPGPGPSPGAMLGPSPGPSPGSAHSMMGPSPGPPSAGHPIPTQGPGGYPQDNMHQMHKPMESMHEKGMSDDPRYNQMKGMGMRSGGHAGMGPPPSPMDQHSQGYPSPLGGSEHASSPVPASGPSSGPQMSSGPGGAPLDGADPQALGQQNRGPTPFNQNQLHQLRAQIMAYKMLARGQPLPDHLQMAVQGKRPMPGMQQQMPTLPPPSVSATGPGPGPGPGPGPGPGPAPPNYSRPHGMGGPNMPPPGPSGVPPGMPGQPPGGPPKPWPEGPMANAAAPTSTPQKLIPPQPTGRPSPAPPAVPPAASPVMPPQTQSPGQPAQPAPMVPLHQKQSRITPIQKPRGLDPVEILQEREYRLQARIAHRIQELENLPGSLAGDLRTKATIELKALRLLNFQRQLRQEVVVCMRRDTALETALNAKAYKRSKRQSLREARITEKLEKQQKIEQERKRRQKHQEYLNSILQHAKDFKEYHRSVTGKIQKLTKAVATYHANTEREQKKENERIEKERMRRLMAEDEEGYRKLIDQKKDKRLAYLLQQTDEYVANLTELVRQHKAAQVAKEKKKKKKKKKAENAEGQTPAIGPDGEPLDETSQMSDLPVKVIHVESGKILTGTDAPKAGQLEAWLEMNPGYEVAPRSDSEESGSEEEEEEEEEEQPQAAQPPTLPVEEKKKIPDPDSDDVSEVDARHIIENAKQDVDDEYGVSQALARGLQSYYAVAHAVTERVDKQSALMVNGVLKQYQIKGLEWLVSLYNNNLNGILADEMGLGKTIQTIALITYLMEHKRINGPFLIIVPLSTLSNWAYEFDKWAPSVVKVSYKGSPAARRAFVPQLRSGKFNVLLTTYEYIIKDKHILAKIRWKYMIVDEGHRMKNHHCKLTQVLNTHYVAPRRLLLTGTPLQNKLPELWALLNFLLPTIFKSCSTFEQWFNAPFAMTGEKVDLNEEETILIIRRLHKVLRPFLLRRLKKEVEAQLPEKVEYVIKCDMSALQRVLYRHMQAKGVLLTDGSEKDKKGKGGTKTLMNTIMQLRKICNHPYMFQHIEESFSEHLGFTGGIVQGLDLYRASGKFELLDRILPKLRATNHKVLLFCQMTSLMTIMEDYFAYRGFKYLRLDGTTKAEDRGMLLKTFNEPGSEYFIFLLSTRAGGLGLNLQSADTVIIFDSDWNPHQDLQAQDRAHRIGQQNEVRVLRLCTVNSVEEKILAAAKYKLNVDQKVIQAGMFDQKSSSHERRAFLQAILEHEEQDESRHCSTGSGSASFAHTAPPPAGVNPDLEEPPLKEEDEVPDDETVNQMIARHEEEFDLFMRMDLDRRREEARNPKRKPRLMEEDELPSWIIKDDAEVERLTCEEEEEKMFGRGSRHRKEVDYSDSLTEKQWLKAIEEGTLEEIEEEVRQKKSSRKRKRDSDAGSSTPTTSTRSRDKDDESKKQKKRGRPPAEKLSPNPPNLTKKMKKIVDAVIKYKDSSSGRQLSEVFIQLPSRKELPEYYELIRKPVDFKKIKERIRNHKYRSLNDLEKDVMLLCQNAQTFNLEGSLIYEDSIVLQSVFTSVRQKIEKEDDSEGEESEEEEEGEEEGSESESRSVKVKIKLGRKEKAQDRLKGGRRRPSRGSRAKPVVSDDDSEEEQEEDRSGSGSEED

SMILES	DC50 [1] [nM]	Dmax [1] [%]	DC50 [2] [nM]	Dmax [2] [%]	Fold Selectivity SMARCA4/2 [2]
CN(C(=O)C1(c2ccnn2C)CCN(c2cnnc(-c3ccccc3O)c2)CC1)C1CCN(CCC2CCN(c3cccc4c3n(C)c(=O)n4C3CCC(=O)NC3=O)CC2)CC1 (racemic) [Example 62, rac-N-{1-[2-(1-{1-[(3R)-2,6-dioxopiperidin-3-yl]-3-methyl-2-oxo-2,3-dihydro-1H-1,3-benzodiazol-4-yl}piperidin-4-yl)ethyl]piperidin-4-yl}-1-[6-(2-hydroxyphenyl)pyridazin-4-yl]-N-methyl-4-(1-methyl-1H-pyrazol-5-yl)piperidine-4-carboxamide]	151	52.3	0.25	93.2	602
O=C1CC[C@H](c2ccc(N3CCC(CN4CCCC5C4CCCN5C(=O)C4(c5ccccc5)CCN(c5cnnc(-c6ccccc6O)c5)CC4)CC3)cc2)C(=O)N1 (stereo partly drawn) [Example 41, (3R)-3-(4-{4-[(5-{1-[6-(2-hydroxyphenyl)pyridazin-4-yl]-4-phenylpiperidine-4-carbonyl}-decahydro-1,5-naphthyridin-1-yl)methyl]piperidin-1-yl}phenyl)piperidine-2,6-dione]	–	41	–	36.8	1
O=C1CC[C@H](c2ccc(N3CCC(CN4CCC(NC(=O)C5(c6ccccn6)CCN(c6cnnc(-c7ccccc7O)c6)CC5)CC45CCC5)CC3)cc2)C(=O)N1 (stereo partly drawn) [Example 182, N-{5-[(1-{4-[(3R)-2,6-dioxopiperidin-3-yl]phenyl}piperidin-4-yl)methyl]-5-azaspiro[3.5]nonan-8-yl}-1-[6-(2-hydroxyphenyl)pyridazin-4-yl]-4-(pyridin-2-yl)piperidine-4-carboxamide]	62.6	57.1	2.76	82.5	23
CCCN(C(=O)C1(c2ccccc2)CCN(c2cnnc(-c3ccccc3O)c2)CC1)C1CCN(CCC2CCN(c3ccc([C@H]4CCC(=O)NC4=O)cc3)CC2)CC1 [Example 100, N-{1-[2-(1-{4-[(3R)-2,6-dioxopiperidin-3-yl]phenyl}piperidin-4-yl)ethyl]piperidin-4-yl}-1-[6-(2-hydroxyphenyl)pyridazin-4-yl]-4-phenyl-n-propylpiperidine-4-carboxamide]	115	66.4	3.4	92.4	34
O=C1CC[C@H](c2ccc(N3CCC(CN4CC[C@H]5[C@H](CCN5C(=O)C5(c6ccccc6)CCN(c6cnnc(-c7ccccc7O)c6)CC5)C4)CC3)cc2)C(=O)N1 (mixture of isomers) [Example 155, (3R)-3-[4-(4-{[(3aRS,7aSR)-1-{1-[6-(2-hydroxyphenyl)pyridazin-4-yl]-4-phenylpiperidine-4-carbonyl}-octahydro-1H-pyrrolo[3,2-c]pyridin-5-yl]methyl}piperidin-1-yl)phenyl]piperidine-2,6-dione]	–	51.5	13.7	75	730
COc1ccccc1C1(C(=O)N(C)C2CCN(CCC3CCN(c4ccc([C@H]5CCC(=O)NC5=O)c(F)c4)CC3)CC2)CCN(c2cnnc(-c3ccccc3O)c2)CC1 [Example 85, N-{1-[2-(1-{4-[(3R)-2,6-dioxopiperidin-3-yl]-3-fluorophenyl}piperidin-4-yl)ethyl]piperidin-4-yl}-1-[6-(2-hydroxyphenyl)pyridazin-4-yl]-4-(2-methoxyphenyl)-N-methylpiperidine-4-carboxamide]	–	41.9	8.19	90.9	1220
CC1(CN2CCC(c3ccc(C4CCC(=O)NC4=O)cc3)CC2)CCN(C(=O)C2(c3ccccc3)CCN(c3cnnc(-c4ccccc4O)c3)CC2)C1 (racemic) [Example 176, rac-(3R)-3-(4-{1-[(1-{1-[6-(2-hydroxyphenyl)pyridazin-4-yl]-4-phenylpiperidine-4-carbonyl}-3-methylpyrrolidin-3-yl)methyl]piperidin-4-yl}phenyl)piperidine-2,6-dione]	–	53	22.3	76.8	449
O=C1CCC(c2ccc(N3C[C@H]4CN(CC(=O)N5CCC6(CC5)CN(C(=O)C5(c7ccccc7)CCN(c7cnnc(-c8ccccc8O)c7)CC5)C6)C[C@@H]4C3)cc2)C(=O)N1 (mixture of isomers) [Example 150, (3RS)-3-{4-[(3aR,6aR)-5-[2-(2-{1-[6-(2-hydroxyphenyl)pyridazin-4-yl]-4-phenylpiperidine-4-carbonyl}-2,7-diazaspiro[3.5]nonan-7-yl)-2-oxoethyl]-octahydropyrrolo[3,4-c]pyrrol-2-yl]phenyl}piperidine-2,6-dione]	–	50.6	22.6	73.9	442
O=C1CC[C@@H](c2ccc(N3CCN(CC4=NO[C@@H]5CN(C(=O)C6(c7ccccc7)CCN(c7cnnc(-c8ccccc8O)c7)CC6)C[C@H]45)CC3)cc2)C(=O)N1 (racemic) [Example 165, (3RS&)-3-[4-(4-{[(3aRS,6aSR)-5-{1-[6-(2-hydroxyphenyl)pyridazin-4-yl]-4-phenylpiperidine-4-carbonyl}-3aH,4H,5H,6H,6aH-pyrrolo[3,4-d][1,2]oxazol-3-yl]methyl}piperazin-1-yl)phenyl]piperidine-2,6-dione]	1000	34	45.8	58	22
O=C1CCC(c2ccc(N3CCC4(CCN(CC5CCN(C(=O)C6(c7ccccc7)CCN(c7cnnc(-c8ccccc8O)c7)CC6)CC5)C4)CC3)cc2)C(=O)N1 (racemic) [Example 163, rac-(3R)-3-(4-{2-[(1-{1-[6-(2-hydroxyphenyl)pyridazin-4-yl]-4-phenylpiperidine-4-carbonyl}piperidin-4-yl)methyl]-2,8-diazaspiro[4.5]decan-8-yl}phenyl)piperidine-2,6-dione]	–	49.3	40.8	62	245
O=C1CC[C@H](c2ccc(N3CCC4(CC3)CC(N[C@H]3CC[C@H](NC(=O)C5(c6ccccc6)CCN(c6cnnc(-c7ccccc7O)c6)CC5)CC3)CO4)cc2)C(=O)N1 (mixture of isomers) [Example 178, 1-[6-(2-hydroxyphenyl)pyridazin-4-yl]-4-phenyl-N-[(1r,4r)-4-[(8-{4-[(3RS)-2,6-dioxopiperidin-3-yl]phenyl}-1-oxa-8-azaspiro[4.5]decan-3-yl)amino]cyclohexyl]piperidine-4-carboxamide]	70.3	62.2	10.1	76.2	7
O=C1CC[C@H](c2ccc(N3CCC(CN4CCC(NC(=O)C5(C6CCOCC6)CCN(c6cnnc(-c7ccccc7O)c6)CC5)CC45CCC5)CC3)cc2)C(=O)N1 (stereo partly drawn) [Example 161, N-{5-[(1-{4-[(3R)-2,6-dioxopiperidin-3-yl]phenyl}piperidin-4-yl)methyl]-5-azaspiro[3.5]nonan-8-yl}-1-[6-(2-hydroxyphenyl)pyridazin-4-yl]-4-(oxan-4-yl)piperidine-4-carboxamide]	–	32.4	31.9	70.8	313
CN(CC1(c2ccccc2)CCN(c2cnnc(-c3ccccc3O)c2)CC1)C1CCN(C(=O)CN2CCC(c3ccc(C4CCC(=O)NC4=O)cc3)CC2)CC1 (racemic) [Example 143, rac-(r)-3-(4-(1-(2-(4-(((1-(6-(2-hydroxyphenyl)pyridazin-4-yl)-4-phenylpiperidin-4-yl)methyl)(methyl)amino)piperidin-1-yl)-2-oxoethyl)piperidin-4-yl)phenyl)piperidine-2,6-dione]	161	66.7	13.3	86.5	12
O=C1CC[C@H](c2ccc(N3CCC(CN[C@H]4CC[C@H](NC(=O)C5(c6ccccc6)CCN(c6cnnc(-c7ccccc7O)c6)CC5)CC4)CC3)cc2)C(=O)N1 (racemic) [Example 175, 1-[6-(2-hydroxyphenyl)pyridazin-4-yl]-4-phenyl-N-[(1r,4r)-4-{[(1-{4-[(3RS)-2,6-dioxopiperidin-3-yl]phenyl}piperidin-4-yl)methyl]amino}cyclohexyl]piperidine-4-carboxamide]	–	35.6	29.8	60.2	335
CN(C(=O)C1(c2ccncc2)CCN(c2cnnc(-c3ccccc3O)c2)CC1)C1CCN(CCC2CCN(c3ccc(C4CCC(=O)NC4=O)c(F)c3)CC2)CC1 (racemic) [Example 75, rac-N-{1-[2-(1-{4-[(3R)-2,6-dioxopiperidin-3-yl]-3-fluorophenyl}piperidin-4-yl)ethyl]piperidin-4-yl}-1-[6-(2-hydroxyphenyl)pyridazin-4-yl]-n-methyl-4-(pyridin-4-yl)piperidine-4-carboxamide]	–	35.3	2.18	90	4587
O=C1CC[C@H](c2ccc(N3CCC(CN4CC5(C4)CN(C(=O)C4(C6CC6)CCN(c6cnnc(-c7ccccc7O)c6)CC4)C5)CC3)cc2)C(=O)N1 [Example 24, (3R)-3-(4-{4-[(6-{4-cyclopropyl-1-[6-(2-hydroxyphenyl)pyridazin-4-yl]piperidine-4-carbonyl}-2,6-diazaspiro[3.3]heptan-2-yl)methyl]piperidin-1-yl}phenyl)piperidine-2,6-dione]	–	31.7	62.7	56.5	159.52
O=C1CCC(c2ccc(OC3CCN(C(=O)C4CCN(C(=O)C5(c6ccccc6)CCN(c6cnnc(-c7ccccc7O)c6)CC5)CC4)CC3)cc2)C(=O)N1 (racemic) [Example 13, rac-(3R)-3-(4-{[1-(1-{1-[6-(2-hydroxyphenyl)pyridazin-4-yl]-4-phenylpiperidine-4-carbonyl}piperidine-4-carbonyl)piperidin-4-yl]oxy}phenyl)piperidine-2,6-dione]	–	12.3	–	40.3	1

Reference: US20250051344A1, “BIFUNCTIONAL SELECTIVE DEGRADERS OF SMARCA2 AND THERAPEUTIC USES THEREOF” (Nurix Therapeutics, Inc., priority 2023, published 2025)
